Data set [1] concerns HUVEC. The experiment in a line: Cytotoxicity in HUVEC assessed as reduction in cell viability up to 50 uM. Type of data set: cell-based. The note with it: human.
Data set [2] relates to HUVEC. The experiment in a line: Antiangiogenesis activity in HUVEC assessed as inhibition of VEGF-induced tube formation at 25 uM. Format: functional, cell-based. As to conditions: Homo sapiens.
Another data set deals with LLC-PK1. The experiment in a line: Renoprotective activity in pig LLC-PK1 cells assessed as inhibition of cisplatin-induced nephrotoxicity at 100 to 200 uM preincubated for 2 hrs followed by cisplatin challenge measured after 24 hrs by MTT assay. Format: functional, cell-based. The note with it: Sus scrofa. For orientation: Tetrazolium dyes change colour on reduction, which living cells bring about.

Data set [3] is described as follows: Antioxidant activity of the compound assessed as DPPH radical scavenging activity by colorimetric method. Type of data set: physicochemical. A general note: Loss of DPPH colour is used to gauge radical scavenging.
The target of data set [4] is Acetylcholinesterase (Homo sapiens) (UniProt P22303). The experiment in a line: Inhibition of acetylcholine esterase (unknown origin) up to 200 uM by Ellman's colorimetric method. On the technique in general: Ellman's reagent forms a yellow product with free thiols.
Data set [5] has as its system HUVEC. The experiment in a line: Antiangiogenesis activity in HUVEC assessed as inhibition of VEGF-induced tube formation at 50 uM. Type of data set: functional, cell-based. As to conditions: Homo sapiens.

The structures appear in SMILES notation. Calls of active or inactive are those of the source. The rule behind the calls is not given here.

Chain of Acetylcholinesterase (Homo sapiens) (P22303 whole entry): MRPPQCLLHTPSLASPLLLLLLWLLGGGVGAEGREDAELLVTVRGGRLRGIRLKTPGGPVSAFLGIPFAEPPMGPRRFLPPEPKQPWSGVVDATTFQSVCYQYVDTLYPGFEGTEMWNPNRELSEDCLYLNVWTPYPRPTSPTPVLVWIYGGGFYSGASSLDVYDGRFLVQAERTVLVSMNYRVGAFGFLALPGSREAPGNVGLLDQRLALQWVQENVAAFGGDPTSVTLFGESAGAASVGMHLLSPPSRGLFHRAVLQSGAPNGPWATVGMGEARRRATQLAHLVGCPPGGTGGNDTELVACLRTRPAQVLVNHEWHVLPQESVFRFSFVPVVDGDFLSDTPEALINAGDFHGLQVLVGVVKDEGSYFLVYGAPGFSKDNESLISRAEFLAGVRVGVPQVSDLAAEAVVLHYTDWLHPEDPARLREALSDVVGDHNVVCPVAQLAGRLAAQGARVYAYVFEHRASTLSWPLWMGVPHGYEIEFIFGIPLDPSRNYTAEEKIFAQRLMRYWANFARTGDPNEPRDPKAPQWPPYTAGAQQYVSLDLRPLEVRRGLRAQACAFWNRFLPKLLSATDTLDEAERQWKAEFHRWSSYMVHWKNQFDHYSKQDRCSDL

Take `CCCCCCCCCCCCCCCC[C@@H](O)C(=O)N[C@@H](CO[C@@H]1O[C@H](CO)[C@@H](O)[C@H](O)[C@H]1O)[C@H](O)/C=C/CC/C=C(\C)CCCCCC`: the Activity entry with HUVEC [1] is given as “Non-toxic”; in data set [3] it was “Not Active”. Further, the result in the data set on HUVEC [2], in the data set on LLC-PK1 and in the data set on HUVEC [5] was Active. The inhibition result in data set [4] is “inactive”.

For `CC(C)=CCC[C@](C)(O[C@@H]1O[C@H](CO)[C@@H](O)[C@H](O)[C@H]1O)[C@H]1CC[C@]2(C)[C@@H]1[C@H](O)C[C@@H]1[C@@]3(C)CC[C@H](O)C(C)(C)[C@@H]3CC[C@]12C`, in the data set on HUVEC [2], the outcome was Active.
